Test results from paper PMC12490008 (Environmental Science & Technology, 2025).
*1 amine or outer side, *2 acyl side, *3 side chain or, on linkers, in order; H or OH if unused. Where a SMILES comes first, the peptide text is derived from it. Bridges are numbered along the chain shown (N, C = ends). [ ]: non-standard residue; d: D form. hTyr = N[C@@H](CCc1ccc(O)cc1)C(=O)O; NMeA = CN[C@@H](C)C(=O)O; CO = O=C([*:1])[*:2]

Experiments:
[1] = tested on: River Chriesbach biofilm suspension (100%)
[2] = tested on: River Chriesbach river water
[3] = tested on: River Chriesbach biofilm suspension (100%, 10%, 1%)
[4] = tested on: River Chriesbach biofilm suspension

Compound	1.3d removal, 2% metabolite [1] [%]	1.3d removal, 10% metabolite [1] [%]	1.3d removal, 100% metabolite [1] [%]	Half-lives (h), 10% metabolite [1] [h]	Half-lives (h), 100% metabolite [1] [h]	1d removal, River water [2] [%]	Half-lives (h), River water [2]	1d removal, 1% biofilm [3] [%]	1d removal, 10% biofilm [3] [%]	1d removal, 100% biofilm [3] [%]	Half-lives (h), 10% biofilm [3]	Half-lives (h), 100% biofilm [3] [h]	removal within 3 days [4]	Half-lives (h), 2% metabolite [1] [h]	Lag-time (h), 2% metabolite [1] [h]	Lag-time (h), 10% metabolite [1] [h]	Lag-time (h), 100% metabolite [1] [h]	Lag-time (h), River water [2]	Half-lives (h), 1% biofilm [3]	Lag-time (h), 100% biofilm [3] [h]	other results
CC[C@H](C)[C@@H]1NC(=O)[C@H](NC(=O)N[C@@H](CCCNC(=N)N)C(=O)O)CCCCNC(=O)[C@H](Cc2ccccc2)NC(=O)[C@H](C)N(C)C(=O)[C@H](CCc2ccc(O)cc2)NC1=O [Anabaenopeptin F] ({Arg-CO}-[dK]I[hTyr][NMeA]F; lactam 1-C)	100	99	62	10.8	30.2	-44	n.d.(decay)	-13	28	83	106.3 h	11.5	more than 50%	–	–	–	–	–	–	–	–
Aerucyclamide A	64	43	21	34.9	56.9	-23	n.d.(decay)	-14	-2	-2	n.d.(decay)	66.9	20%	28.4	28.0	34.8	56.9	n.d.(decay)	n.d.(decay)	66.8	Lag-time (h), 1% biofilm [3]: n.d.(decay); Lag-time (h), 10% biofilm [3]: n.d.(decay)
Anabaenopeptin A	100	98	46	13.4	34.9	-28	n.d.(decay)	-9	25	86	103.7 h	11.5	32-35%	7.2	6.7	12.3	34.8	n.d.(decay)	177.1 h	10.2	expected river water half-lives [2]: 8.6 to 10.6 days; Lag-time (h), 1% biofilm [3]: 98.1 h; Lag-time (h), 10% biofilm [3]: 102.8 h
Anabaenopeptin B	100	99	62	11.2	30.0	-23	n.d.(decay)	-11	23	85	111.9 h	10.4	–	6.2	5.3	10.3	29.9	n.d.(decay)	–	8.5	initial removal at 1.3 days at decreased initial metabolite concentrations [1]: ~100%; Lag-time (h), 10% biofilm [3]: 111.7 h; detectability at day 5 [4]: not detectable anymore; lag time (shoulder-log fitting) [4]: 2.3 days
Cyanopeptolin 963A	100	98	64	–	29.6	-81	–	-26	5	56	–	–	32-35%	–	–	–	29.5	–	–	–	–
Cyanopeptolin 1020	100	100	94	8.3	9.9	–	129.5 h	–	31	91	64.2 h	9.0	–	6.2	5.7	8.3	0.4	–	112.1 h	6.7	degradation in ambient river water [2]: detectable degradation; lag time, ambient river water [2]: 5.4 days; lag time, 1% biofilm [3]: 4.1 days; lag time, 10% biofilm [3]: 2.5 days; detectability at day 5 [4]: not detectable anymore; lag time (shoulder-log fitting) [4]: 1.6 days
Cyanopeptolin A	100	100	97	6.5	5.8	3	n.d.(decay)	10	57	98	35.9 h	5.1	more than 50%	–	–	6.1	0.0	n.d.(decay)	105.9 h	0.8	Lag-time (h), 1% biofilm [3]: 89.7 h; Lag-time (h), 10% biofilm [3]: 0.0 h
Cyanopeptolin B	100	100	96	–	7.7	2	–	16	49	100	–	–	more than 50%	–	–	–	0.0	–	–	–	–
Cyanopeptolin C	100	100	82	8.5	18.1	-3	–	1	29	80	–	–	more than 50%	–	–	8.5	9.6	–	–	–	–
Cyanopeptolin D	100	100	76	11.1	27.2	11	n.d.(decay)	4	26	77	–	19.1	more than 50%	7.4	7.3	10.5	27.2	n.d.(decay)	–	18.7	–
